System: recombinant guanylate cyclase reporter cell line
Test: Action at recombinant guanylate cyclase reporter cell line (CHO reporter cell)
Format: cell-based
Details: MEC = minimal effective concentration; read-out: sGC-activating activity in the CHO reporter cell in vitro, MEC
Description: The cellular action of the compounds according to the invention is determined at a recombinant guanylate cyclase reporter cell line, as described in F. Wunder et al., Anal. Biochem. 339, 104-112 (2005).

Compound	minimal effective concentration [µM]
CCc1ccc([C@@H](C(=O)Nc2cc(C(C)CC(=O)O)ccc2Cl)[C@@H](C)C(F)(F)F)cc1 (stereo partly drawn) [Example 7, 3-(4-chloro-3-{[(2S,3R)-2-(4-ethylphenyl)-4,4,4-tri-fluoro-3-methylbutanoyl]amino}phenyl)butanoic acid]	0.0002
C[C@H]([C@H](C(=O)Nc1cc([C@H](CC(=O)O)C(F)(F)F)ccc1Cl)c1ccc(Cl)cc1)C(F)(F)F (single isomer, unassigned) [Example 84]	0.001
C[C@H]([C@H](C(=O)Nc1cc(CCC(=O)O)ccc1Cl)c1ccc(C(C)(C)C)cc1)C(F)(F)F [Example 2, (+)-3-(3-{[(2S,3R)-2-(4-tert-butylphenyl)-4,4,4-trifluoro-3-methylbutanoyl]amino}-4-chlorophenyl)-propanoic acid]	0.0003
C[C@H]([C@H](C(=O)Nc1cc(C2(CC(=O)O)CC(F)(F)C2)ccc1Cl)c1ccc(Cl)cc1)C(F)(F)F [Example 102]	0.001
C[C@@H](Cc1ccc(Cl)c(NC(=O)C(c2ccc(Cl)cc2)C2CCC(F)(F)C2)c1)C(=O)O (single isomer, unassigned) [Example 105]	0.03
C[C@H]([C@H](C(=O)Nc1cc(C2CC2C(=O)O)ccc1F)c1ccc(Cl)cc1)C(F)(F)F (single isomer, unassigned) [Example 53]	0.3
CC[C@@H](CC(=O)O)c1ccc(Cl)c(NC(=O)[C@H](c2ccc(Cl)cc2)[C@@H](C)C(F)(F)F)c1 (single isomer, unassigned) [Example 87]	0.001
CC[C@@H](Cc1ccc(Cl)c(NC(=O)[C@H](c2ccc(Cl)cc2)[C@@H](C)C(F)(F)F)c1)C(=O)O [Example 30, (+)-(2S)-2-(4-Chloro-3-{[(2S,3R)-2-(4-chlorophenyl)-4,4,4-trifluoro-3-methylbutanoyl]amino}-benzyl)butanoic acid]	0.0003
CCC(C)(Cc1ccc(Cl)c(NC(=O)[C@H](c2ccc(Cl)cc2)[C@@H](C)C(F)(F)F)c1)C(=O)O (single isomer, unassigned; (+)) [Example 71]	0.01
C[C@H](C(C(=O)Nc1cc(C2(CC(=O)O)CCC2)ccc1Cl)c1ccc(Cl)cc1)C(F)(F)F (stereo partly drawn) [Example 28, [1-(4-Chloro-3-{[(3R)-2-(4-chlorophenyl)-4,4,4-trifluoro-3-methylbutanoyl]amino}-phenyl)cyclobutyl]acetic acid]	0.001
C[C@@H](CC(=O)O)c1ccc(Cl)c(NC(=O)C(c2ccc(Cl)cc2)C2CCCC2(F)F)c1 (stereo partly drawn) [Example 10, (3S)-3-(4-chloro-3-{[(4-chlorophenyl)(2,2-difluoro-cyclopentyl)acetyl]amino}phenyl)butanoic acid]	0.0052
CCC[C@@H](CC(=O)O)c1ccc(Cl)c(NC(=O)[C@H](c2ccc(Cl)cc2)[C@@H](C)C(F)(F)F)c1 (single isomer, unassigned) [Example 82]	0.00023
C[C@H]([C@H](C(=O)Nc1cc(C[C@H](C)C(=O)O)ccc1Cl)c1ccc(C2CC(F)(F)C2)cc1)C(F)(F)F [Example 100]	0.003
C[C@H]([C@H](C(=O)Nc1cc(C2(CC(=O)O)CC2)ccc1Cl)c1ccc(Cl)cc1)C(F)(F)F [Example 96]	0.001
C[C@H]([C@H](C(=O)Nc1cc(CCC(=O)O)ccc1Cl)c1ccc(CC(F)(F)F)cc1)C(F)(F)F (racemic) [Example 5, 3-[4-Chloro-3-({4,4,4-trifluoro-3-methyl-2-[4-(2,2,2-trifluoroethyl)phenyl]butanoyl}amino)phenyl]-propanoic acid]	0.003
C[C@H]([C@H](C(=O)Nc1cc(CC(C)(C)C(=O)O)ccc1Cl)c1ccc(Cl)cc1)C(F)(F)F [Example 89]	0.003

Source: patent US9018414B2, “Substituted 3-phenylpropionic acids and the use thereof” (Bayer Intellectual Property GmbH, priority 2009, dated 2015)
